# Measured values as given in patent US20050009889A1 (priority 2002, published 2005).
# Marks after values point to notes of the source that are not given here.
# Tests used:
# Type in all cases: in vivo
# [1] = system: Phytophthora infestans; details: tomato seedlings sprayed to run-off, inoculated next day; concentration not given
# [2] = system: Plasmopara viticola; assay: Test E: preventive control of grape downy mildew on grape seedlings; details: grape seedlings sprayed to run-off, inoculated next day; concentration not given
# Excerpt: (§1) General protocol for preparing test suspensions: Test compounds are first dissolved in acetone in an amount equal to 3% of the final volume and then suspended at the desired concentration (in ppm) in acetone and purified water (50/50 mix) containing 250 ppm of the surfactant Trem® 014 (polyhydric alcohol esters). The resulting test suspensions are then used in the following tests. Spraying a 200 ppm test suspension to the point of run-off on the test plants is the equivalent of a rate of 500 g/ha.
# The test suspension was sprayed to the point of run-off on grape seedlings. The following day the seedlings were inoculated with a spore suspension of Plasmopara viticola (the causal agent of grape downy mildew) and incubated in a saturated atmosphere at 20° C. for 24 h, moved to a growth chamber at 20° C. for 6 days, and then incubated in a saturated atmosphere at 20° C. for 24 h, after which disease ratings were made.
# [3] = system: Phytophthora infestans; details: curative; 100 ppm on potato seedlings
# [4] = system: Plasmopara viticola; assay: Test G: curative control of grape downy mildew on grape seedlings; details: grape seedlings, curative; 100 ppm (footnote *)
# Excerpt: as §1
# Grape seedlings are inoculated with a spore suspension of Plasmopara viticola (the casual agent of grape downy mildew) and incubated in a saturated atmosphere at 20° C. for 24 h. The next day, test suspension is sprayed to the point of run-off and the treated plants are moved to a growth chamber at 20° C. for 6 days, and then incubated in a saturated atmosphere at 20° C. for 24 h, after which disease ratings are made.
# [5] = system: Puccinia recondita; assay: Test B: preventive control of wheat leaf rust on wheat seedlings; details: wheat seedlings sprayed to run-off, inoculated next day; concentration not given
# Excerpt: as §1
# The test suspension was sprayed to the point of run-off on wheat seedlings. The following day the seedlings were inoculated with a spore suspension of Puccinia recondita (the causal agent of wheat leaf rust) and incubated in a saturated atmosphere at 20° C. for 24 h, and then moved to a growth chamber at 20° C. for 6 days, after which disease ratings were made.
# [6] = system: Pyricularia oryzae; details: rice seedlings sprayed to run-off, inoculated next day; concentration not given
# [7] = system: Erysiphe graminis f. sp. tritici; assay: Test A: preventive control of wheat powdery mildew on wheat seedlings; details: wheat seedlings sprayed to run-off, inoculated next day, rated after 7 days; concentration not given
# Excerpt: as §1
# The test suspension was sprayed to the point of run-off on wheat seedlings. The following day the seedlings were inoculated with a spore dust of Erysiphe graminis f. sp. tritici, (the causal agent of wheat powdery mildew) and incubated in a growth chamber at 20° C. for 7 days, after which disease ratings were made.
# [8] = system: grape downy mildew; assay: Curative utility, in addition to the Tests of Table A; details: especially for grape downy mildew
Molecule,"Test D disease control rating (100 = 100% disease control, 0 = no control) [1] [%]","Test E disease control rating (100 = 100% disease control, 0 = no control) [2] [%]","Test F disease control rating (100 = 100% disease control, 0 = no control) [3]","Test G disease control rating (100 = 100% disease control, 0 = no control) [4]","Test B disease control rating (100 = 100% disease control, 0 = no control) [5] [%]","Test C disease control rating (100 = 100% disease control, 0 = no control) [6] [%]","Test A disease control rating (100 = 100% disease control, 0 = no control) [7] [%]",curative utility [8]
"2,4-Dichloro-N-[1-[3-chloro-5-(trifluoromethyl)-2-pyridinyl]ethyl]-3-pyridinecarboxamide [Compound 21]",100,100,100# %,100* %,74,0,0,significant curative utility
Cc1cnc(Cl)c(C(=O)NCc2ncc(C(F)(F)F)cc2Cl)c1Cl [Compound 20],100,100,24# %,100* %,54,0,0,significant curative utility
